{"source": "paper PMC10583261", "about": "(CPT: Pharmacometrics & Systems Pharmacology, 2023)", "key": {"[1]": {"format": "in vivo, human"}, "[2]": {"settings": "ref data on file, cited from earlier work"}, "[3]": {"settings": "weak-base compound; ref data on file; cited from earlier work"}, "[4]": {"settings": "final population PK model, healthy subjects"}}, "note": "“And” between values parts separate entries of the source, which are not always exact repeats. Equal values may be shown once. Read-outs that look alike come from different tables or passages of the source."}
{"smiles": "N#Cc1ccc(N2CCN(Cc3ccc(COc4cccc5c4CN([C@H]4CCC(=O)NC4=O)C5=O)cc3)CC2)c(F)c1", "note": "[mezigdomide]", "values": [{"measurement": "decrease in ka with high-fat meal", "setting": "[1]; fed vs fasted, model-estimated", "value": "~ 30%"}, {"measurement": "increase in Tlag with high-fat meal", "setting": "[1]; fed vs fasted, model-estimated", "value": "~ 0.85 h"}, {"measurement": "increase of relative oral bioavailability F with high-fat meal", "setting": "[1]; fed vs fasted, model-estimated", "value": "~ 30%"}, {"measurement": "interindividual variability (IIV) of central volume of distribution V1", "setting": "[1]; final population PK model", "value": "63% and 63.4%"}, {"measurement": "interindividual variability (IIV) of clearance", "setting": "[1]; final population PK model", "value": "40% and 39.9% and ~ 40%"}, {"measurement": "interindividual variability (IIV) of intercompartmental clearance", "setting": "[1]; final population PK model", "value": 26, "unit": "%"}, {"measurement": "interindividual variability (IIV) of peripheral volume of distribution", "setting": "[1]; final population PK model", "value": 26, "unit": "%"}, {"measurement": "interoccasion variability (IOV) of absorption rate constant ka", "setting": "[1]; final population PK model", "value": 65, "unit": "%"}, {"measurement": "V1pop, distribution volume of the central compartment", "setting": "[1]; [4]", "value": 440, "unit": "L"}, {"measurement": "V2pop, distribution volume of the peripheral compartment", "setting": "[1]; [4]", "value": 243, "unit": "L"}, {"measurement": "dose-exposure relationship", "setting": "[1]; healthy subjects, 0.4–3.2 mg", "value": "linear"}, {"measurement": "absorption rate constant", "setting": "[1]; population PK parameter, healthy subjects (abstract)", "value": 1.18, "unit": "h⁻¹"}, {"measurement": "decrease in relative oral bioavailability F with PPI co-administration", "setting": "[1]; rabeprazole vs no PPI, model-estimated", "value": "~ 64%"}, {"measurement": "Solubility", "setting": "[2]; pH 1", "value": 133, "unit": "µg/mL"}, {"measurement": "Solubility", "setting": "[2]; pH 5", "value": 1, "unit": "µg/mL"}, {"measurement": "decrease of solubility from pH 1 to pH 5", "setting": "[2]", "value": "~ 100 fold"}, {"measurement": "dissociation constant", "setting": "[3]", "value": 6}]}
